Assay [1] has as its system HCT-116 xenografts. The experiment in a line: Subcutaneous colon cancer xenograft in athymic mice. It counts as in vivo. As for the experimental part: DLD-1, HCT-116, and HT-29 cells were cultured for 6 days in soft agar in the presence of DMSO (control), 10 μM BAY 11-7082, or 10 μM BAY 11-7085. The data points represent the means of colony counts per field (20×) performed in 5 different regions of the culture dishes. The data shown represent a typical result of two separate experiments. FIGS. 2B,C, show athymic mice received subcutaneous injections of HT-29 (B) or HCT-116 (C) cells, followed by […] of BAY 11-7085 (dark bars) or DMSO (white bars) intraperitoneally twice weekly. The bars represent the 25-75% ranges of the tumor volumes and the horizontal lines in the bars are the medians. Using the Kruskal-Wallace statistical test to compare the median tumor volumes between BAY 11-7085 and DMSO yielded a p-value of 0.005 for HT-29 cells but >0.05 for HCT-116 cells.
HT-29 and HCT-116 cells were harvested in 0.25% trypsin-PBS-EDTA, washed once in media and PBS, and resuspended in PBS at 1 million cells per 200 μL. One million cells were injected either subcutaneously in the backs or intraperitoneally in 5 week old female nu/nu athymic mice (Charles River Labs). For the mice with subcutaneous tumors, the tumors were allowed to establish themselves for 10 days after which they were randomized to BAY 11-7085 or DMSO. For the mice with intraperitoneal tumors, the mice received DMSO or BAY 11-7085 (5 mg/kg) 24 hours before the cancer cells were injected intrapentoneally. All mice received BAY 11-7085 (5 mg/kg) or an equal volume of DMSO (˜200 μL) twice weekly for 21-32 days. Subcutaneous tumor sizes were determined by measuring the length and width with calipers. These studies were approved by the U. of Utah Institutional Review Board and Institutional Animal Care and Use Committee and performed in the Animal Resource Center. Mice were euthanized when they experienced a greater than 10% loss in body weight or if they appeared ill. Post-mortem examinations included sectioning of kidney, lung, and liver tissues which were stained with hematoxylin and eosin followed by examination for tissue toxicity/damage by an experienced mouse pathologist (E.J.E.) who was blinded to therapy.
(Wang et al., 1999) However, BAY 11-7082 or BAY 11-7085 alone inhibit colon cancer xenograft growth in athymic mice. HC-116, and HT-29 cell lines were used to generate subcutaneous tumors in athymic female mice. The mice were subsequently randomized to be treated with vehicle (DMSO) alone or BAY 11-7085 1 mg/kg twice weekly for 28 days.

Assay [2] concerns c-IAP-1. The experiment in a line: Immunoblot of anti-apoptotic proteins in HT-29 cells. It counts as cell-based. Particulars: transiently suspended or adherent HT-29; 20 μM; 8 hours. As for the experimental part: (§1) The data points represent the means of triplicate experiments and the error bars the standard errors of the means. […] The percent of apoptotic cells was then determined by the annexin V assay. […] The results shown are typical of two separate experiments. […] Immunoblots were performed for c-IAP-2, TRAF-1, TRAF-2, and FLIP. All lanes contain equal total protein.
(§2) The cells were washed twice in ice cold PBS and then lysed in 4° C. lysis buffer (50 mM HEPES, 150 mM NaCl, 1.5 mM MgCl2, 1 mM EGTA, 100 mM NaF, 10 mM Na2PO4, 1 mM Na3VO4, 10% glycerol, 1% Triton X-100, and 1 μg/ml each of aprotinin, leupeptin, chymostatin, pepstatin) and clarified at 12,000 rpm at 4° C. for 15 minutes. The lysates were normalized for total protein concentration. Aliquots of the lysates were then mixed 1:1 in sample buffer (125 mM Tris-HCl (pH 6.8), 20% glycerol. 4% sodium dodecyl sulfate, 2% beta-mercaptoethanol, 10 μg/ml bromophenol blue) and boiled for 3 minutes. The samples were loaded onto SDS-PAGE gels (7.5 or 10% acrylamide). The proteins were transferred to nitrocellulose from the gels, then incubated in blocking buffer (1% bovine serum albumin (Bio-Rad), 100 mM Tris-Cl (pH7.4), 0.9% NaCl, 0.1% Nonidet) overnight at 4° C.
(§3) For immunodetection, the blocked blots were probed with primary antibody for 2 hours at 4° C. on a rocker. The blots were washed twice for 10 minutes each in blocking buffer, then incubated with a 1:2000 dilution of a rabbit-anti-mouse secondary antibody (for monoclonal primary antibodies; for polyclonal antibodies, this step was skipped). After two washes in blocking buffer (150 mM NaCl, 20 mM Tris pH 7.4, 0.5% Tween 20, 5% bovine serum albumin, and 0.2 gm/500 ml final concentration of sodium azide), the blots were finally incubated with a 1:2000 dilution of alkaline phosphatase-conjugated rabbit-anti-mouse antibodies (Jackson) in blocking buffer. Alkaline phosphatase was detected by a colorimetric reaction using a BCIP (5-Bromo-4-Chloro-3-Indolyl phosphate)/NBT (Nitroblue tetrazolium) kit (Zymed).
In general terms: A western blot detects proteins with antibodies after separation by electrophoresis.

The test system of assay [3] is TRAF-2. Described as above. It counts as cell-based. The settings on record: 20 μM, 8 hours. How it is done: as §1, §2, §3
Assay [4] has as its system TRAF-1. The assay is described as above. It counts as cell-based. The settings on record: 20 μM, 8 hours. As for the experimental part: as §1, §2, §3
Assay [5] concerns FLIP (54 kilodalton long isoform). Described as above. Particulars: adherent HT-29; 20 μM. It counts as cell-based. How it is done: as §1, §2, §3
The test system of assay [6] is HT-29 colon cancer cell line. The experiment in a line: Cell proliferation assay (crystal violet, 590 nm). The assay is classed as cell-based. Particulars: 10 μM, cultured 8 days. As for the experimental part:
DLD-1, HCT-116, and HT-29 colon cancer cell lines were obtained from the ATCC collection and were cultured in Dulbecco's Modification of Eagle's Medium supplemented with 10% fetal bovine serum, glutamine, penicillin, and streptomycin. 293 cells stably transfected with COX-2 (293-COX-2) under the control of a ponasterone sensitive promoter were cultured in Dulbecco's Modification of Eagle's Medium supplemented with 10% fetal bovine serum, 400 μg/ml of zeocin, 400 μg/ml of G418, glutamine, penicillin, and streptomycin. For induction of COX-2 protein expression, 293-COX-2 cells were cultured for 48 hours in media supplemented with 1 μg/ml of ponasterone. All cells were cultured at 37° C. in a humidified incubator with a 5% CO2 atmosphere.
For the cell proliferation assay, cells were dispersed and plated at 40,000 cells/well in 96-well dishes. At various days in culture, the cells were gently washed twice with 100 μl/well of ice-cold blocking buffer (1% radioimmunoassay grade BSA in PBS) and twice with 100 μl/well of ice-cold PBS. The cells were fixed for 10 min in 100% ice-cold methanol (100 μl/well), then allowed to air-dry. The cells were stained with 100μl/well of 0.1% crystal violet in H2O for 10 minutes, then washed gently four times with dd H20 and four times with PBS. The plates were then air-dried completely. The stained cells were then solubilized in 1% sodium deoxycholate, and the plates read at 590 nm in a spectrophotometer. The absorption at 590 nm is proportional to the number of attached cells.

In the case of `CC(C)(C)c1ccc(S(=O)(=O)/C=C/C#N)cc1` [BAY 11-7085, (2E)-3-[4-(tertiarybutylphenyl)sulfonyl]-2-propenenitrile], in assay [1] (HCT-116, intraperitoneally twice weekly), the “p-value, Kruskal-Wallace test of median tumor volumes vs DMSO” value is recorded as more than 0.05. For the same molecule, the “tumor volumes, treatment group compared with control group” value in assay [1] (HCT-116 subcutaneous tumors, 1 mg/kg twice weekly for 28 days, vs DMSO) is listed as “no statistically significant overall difference in the tumor volumes”. Besides, the c-IAP-1 protein expression entry in assay [2] is “No decrease in c-IAP-1 protein expression”. Further, the TRAF-2 protein expression result in assay [3] is given as “decrease in the protein expression”. The TRAF-1 protein expression result in assay [4] was “decrease in the protein expression”. In assay [5], the “expression of the 54 kilodalton (long) isoform of FLIP” value is recorded as “only a slight diminution”. Also, in assay [6], the “inhibition of cell proliferation” value is given as “greatly inhibited cell proliferation”.

The values are drawn from US7989495B2, “Compositions and methods for inhibiting NF-κB mediated tumorigenicity and adhesion dependent survival of cancer cells” (University of Utah Research Foundation, priority 2002, dated 2011).
